Reference: ChEMBL document CHEMBL1128247, “Prediction of receptor properties and binding affinity of ligands to benzodiazepine/GABAA receptors using artificial neural networks” (J Med Chem, 1995)

Target: GABA-A receptor; anion channel
Test: Binding affinity towards benzodiazepine/GABA A receptor.
Assay type: protein-complex assay
Design: unit not given here

| Compound | Log IC50 |
| --- | --- |
| CC(C)(C)N1C(=O)CN=C(c2ccccc2)c2cc(Cl)ccc21 | -2.792 |
| O=C1CN=C(c2ccccc2F)c2ccccc2N1 | -1.322 |
| O=C1Nc2ccc(Cl)cc2C(c2ccccc2F)=NC1Cl (centres undefined) | -0.724 |
| CN1C(=O)CN=C(c2ccccc2)c2cc(Cl)c(Cl)cc21 | -1.602 |
| CN1C(=O)CN=C(c2ccccc2)c2cc(F)ccc21 | -1.23 |
| CN1C(=O)CN=C(c2ccccc2F)c2cc(C#N)ccc21 | -1.477 |
| CC1N=C(c2ccccc2)c2cc(Cl)ccc2N(Cl)C1=O (centres undefined) | -1.69 |
| CN1C(=O)CN=C(c2ccccc2)c2cc(N)ccc21 | -2.663 |
| O=C1CN=C(c2c(F)cccc2F)c2ccccc2N1 | -1.279 |
| O=C1CN=C(c2c(F)cccc2F)c2ccc(Cl)cc2N1 | -1.447 |
| O=C1CN=C(c2c(F)cccc2F)c2cc(Cl)ccc2N1 | -0.204 |
| O=C1CN=C(c2ccccc2F)c2cc(F)ccc2N1 | -0.869 |
| CN1C(=O)CN=C(c2ccccc2)c2cc(C#N)ccc21 | -2.58 |
| O=C1CN=C(c2ccccc2C(F)(F)F)c2cc([N+](=O)[O-])ccc2N1 | -0.544 |
| [N-]=[N+]=Nc1ccc2c(c1)C(c1ccccc1F)=NCC(=O)N2 | -0.724 |
| CC(C)(C)N1C(=O)CN=C(c2ccccc2F)c2cc([N+](=O)[O-])ccc21 | -2.477 |
| Cc1ccc2c(c1)NC(=O)CN=C2c1ccccc1F | -1.279 |
| CN1C(=O)CN=C(c2c(F)cccc2F)c2cc(Cl)ccc21 | -0.613 |
| C=Cc1ccc2c(c1)C(c1ccccc1)=NCC(=O)N2 | -1.38 |
| CCc1ccc2c(c1)C(c1ccccc1)=NCC(=O)N2 | -1.556 |
| O=Cc1ccc2c(c1)C(c1ccccc1)=NCC(=O)N2 | -1.633 |
| CN1C(=O)CN=C(c2c(F)cccc2F)c2cc(Br)ccc21 | -0.38 |

| Compound | Log IC50 |
| --- | --- |
| CN1C(=O)CN=C(c2ccccc2Cl)c2ccccc21 | -0.58 |
| CN1C(=O)CN=C(c2ccccc2F)c2cc(I)ccc21 | -0.462 |
| CN1C(=O)CN=C(c2ccccc2F)c2cc(NO)ccc21 | -1.982 |
| CN1C(=O)CN=C(c2ccccc2F)c2cc(F)ccc21 | -0.708 |
| O=C1CN=C(c2ccccc2F)c2cc([N+](=O)[O-])ccc2N1 | -0.176 |
| CN1C(=O)CN=C(c2c(Cl)cccc2Cl)c2cc(Cl)ccc21 | -0.74 |
| O=C1CN=C(c2ccccc2F)c2cc(Cl)ccc2N1 | -0.301 |
| CN1C(=O)CN=C(c2ccccc2F)c2cc(N)ccc21 [7-AMINO-FLUNITRAZEPAM] | -1.813 |
| Nc1ccc2c(c1)C(c1ccccc1)=NCC(=O)N2 [7-AMINO-NITRAZEPAM] | -2.587 |
| Nc1ccc2c(c1)C(c1ccccc1Cl)=NCC(=O)N2 [7-AMINOCLONAZEPAM] | -1.875 |
| O=C1CN=C(c2ccccc2Cl)c2cc([N+](=O)[O-])ccc2N1 [CLONAZEPAM] | -0.255 |
| O=C1CN=C(c2ccccc2Cl)c2cc(Cl)ccc2N1 [DELORAZEPAM] | -0.255 |
| O=C1CN=C(c2ccccc2)c2cc(Cl)ccc2N1CC(F)(F)F [HALAZEPAM] | -1.964 |
| COCN1C(=O)CN=C(c2ccccc2)c2cc([N+](=O)[O-])ccc21 [MOTRAZEPAM] | -2.633 |
| O=C1CN=C(c2ccccc2)c2cc([N+](=O)[O-])ccc2N1 [NITRAZEPAM] | -1 |
| O=C1CN=C(c2ccccc2)c2cc(Cl)ccc2N1 [NORDAZEPAM] | -0.973 |
| O=C1CN=C(c2ccccc2)c2cc(C(F)(F)F)ccc2N1 [RO-052904] | -1.114 |
| O=C1CN=C(c2ccccc2)c2cc(F)ccc2N1 [RO-053061] | -1.602 |
| CN1C(=O)CN=C(c2ccccc2Cl)c2cc([N+](=O)[O-])ccc21 [RO-054082] | -0.342 |
| CN1C(=O)CN=C(c2ccccc2F)c2ccccc21 [RO-054520] | -1.146 |
| O=C1CN=C(c2c(Cl)cccc2Cl)c2cc(Cl)ccc2N1 [RO-223294] | -0.845 |
| CN1C(=O)C(O)N=C(c2ccccc2)c2cc(Cl)ccc21 (centres undefined) [TEMAZEPAM] | -1.204 |
